In patent publication US9365853B2, “Matriptase inhibitors and uses thereof against orthomyxoviridae infections” (priority 2011, dated 2016):
Read-outs that look alike come from different tables or passages of the source. Where a SMILES comes first, the peptide text is derived from it. The star is where a group is joined. X1 = N=C(N)NCCC[C@@H](N*)C(=O)c1nc2ccccc2s1; CH2Cl = ClC*

Assays:
matriptase [1] = target: T1, matriptase (Homo sapiens (Human), UniProt Q9Y5Y6); test: Ki determination for matriptase (Morrison tight-binding or mixed model, fluorogenic Boc-Gln-Ala-Arg-AMC); assay type: biochemical; settings: for reduced potency (lower inhibition) compared to compound 1: matriptase Ki relative to compound 1
[2] = system: influenza A/Puerto Rico/8/34 virus; assay type: cell-based, influenza A/Puerto Rico/8/34 virus (PR8)
matriptase [3] = target: T1, matriptase; test: Matriptase inhibition in cellulo (HEK293 transfected with pcDNA3.1-matriptase, activity in media); assay type: cell-based; settings: HEK293, 24 h incubation, read-out: inhibition of matriptase activity in cultured cells
Procedure: Human embryonic kidney cells (HEK293) were transfected with 6 μg of pcDNA3.1™ (Mock) or pcDNA3.1™-matriptase (Matriptase) using Lipofectamine 2000™ reagent (Invitrogen) in 10-cm plates. […] After 24 h incubation, media was incubated with Boc-Gln-Ala-Arg-AMC substrate (50 μM) and fluorescence measured for 20 minutes at 37° C. Enzyme activity was determined in terms of released fluorescence units per minutes per μl of media for each condition.

furin = furin (Homo sapiens (Human), UniProt P09958); test: Ki determination, selectivity profile: furin (Boc-Arg-Arg-Val-Arg-AMC); assay type: biochemical; settings: furin (protease #7); NI = no inhibition, 10 μM
[4] = target: Recombinant purified human matriptase (amino acids 596-855) (Homo sapiens (Human), UniProt Q9Y5Y6); test: biochemical; assay type: biochemical
[5] = system: influenza A/Puerto Rico/8/34 virus; assay type: cell-based, influenza A/Puerto Rico/8/34 virus (PR8); remark: listed apart in the source
[6] = system: influenza A/Puerto Rico/8/34; assay type: cell-based, influenza A/Puerto Rico/8/34 (H1N1)
matriptase [7] = target: T1, matriptase; test: siRNA knock-down of matriptase protein expression in Calu-3 cells (Western blot, densitometry); assay type: cell-based; settings: Calu-3, 50 nmol siRNA, 1.5 μl Lipofectamine RNAiMAX, 48 h after transfection
Procedure: Using RNA interference technology, siRNAs specific to human matriptase were targeted in these cells. Calu-3 cells were transfected with two different siRNAs (50 nmol, S1: s13520 (Ambion) Silencer® Select siRNAs gene symbol ST14; S2: EHU012511 (Sigma-Aldrich) MISSION® esiRNA targeting human ST14 (esiRNA1)) targeted toward matriptase mRNA (target sequence of EHU012511: […] […] […] […] (SEQ ID NO:5)) using various concentrations of Lipofectamine RNAiMAX™ (0.5 to 1.5 μl). Scrambled siRNAs were used as controls. 48 h after transfection, cellular protein extracts were prepared. Extracts were subjected to polyacrylamide gel electrophoresis (SDS-PAGE) and transferred to nitrocellulose membranes. Membranes were probed for matriptase protein expression using a rabbit anti-human matriptase-specific antibody. Membranes were blocked using non-fat dry milk in Tris-Buffered Saline (TBS) with Tween™ 20. Membranes were then labeled with a rabbit anti-human matriptase-specific antibody (Bethyl Laboratories Inc.).

matriptase [8] = target: T1, matriptase; test: Dissociation of enzyme:inhibitor complex by dilution recovery experiments; assay type: biochemical; settings: matriptase 0.5 μM pre-incubated 20 minutes, diluted 1:2000
Procedure: Dissociation of the enzyme-inhibitor (EI) complex was investigated using dilution recovery experiments. […] Complexes were rapidly (1:2000) diluted in a reaction buffer containing 400 μM of Boc-Gln-Ala-Arg-AMC (˜7 times Km). Activity was continuously recorded for 75 minutes and fluorescence plotted as a function of time.

Chain of Recombinant purified human matriptase (amino acids 596-855) (Q9Y5Y6 596-855 limits assumed): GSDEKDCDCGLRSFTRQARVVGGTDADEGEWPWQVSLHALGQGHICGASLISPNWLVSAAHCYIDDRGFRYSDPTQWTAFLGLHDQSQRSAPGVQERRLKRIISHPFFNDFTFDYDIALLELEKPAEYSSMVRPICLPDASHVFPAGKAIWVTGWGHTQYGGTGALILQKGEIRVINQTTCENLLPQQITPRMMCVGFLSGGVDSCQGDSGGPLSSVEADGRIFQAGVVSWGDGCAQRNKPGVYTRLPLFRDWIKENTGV
Chain of furin (P09958 108-794 limits assumed): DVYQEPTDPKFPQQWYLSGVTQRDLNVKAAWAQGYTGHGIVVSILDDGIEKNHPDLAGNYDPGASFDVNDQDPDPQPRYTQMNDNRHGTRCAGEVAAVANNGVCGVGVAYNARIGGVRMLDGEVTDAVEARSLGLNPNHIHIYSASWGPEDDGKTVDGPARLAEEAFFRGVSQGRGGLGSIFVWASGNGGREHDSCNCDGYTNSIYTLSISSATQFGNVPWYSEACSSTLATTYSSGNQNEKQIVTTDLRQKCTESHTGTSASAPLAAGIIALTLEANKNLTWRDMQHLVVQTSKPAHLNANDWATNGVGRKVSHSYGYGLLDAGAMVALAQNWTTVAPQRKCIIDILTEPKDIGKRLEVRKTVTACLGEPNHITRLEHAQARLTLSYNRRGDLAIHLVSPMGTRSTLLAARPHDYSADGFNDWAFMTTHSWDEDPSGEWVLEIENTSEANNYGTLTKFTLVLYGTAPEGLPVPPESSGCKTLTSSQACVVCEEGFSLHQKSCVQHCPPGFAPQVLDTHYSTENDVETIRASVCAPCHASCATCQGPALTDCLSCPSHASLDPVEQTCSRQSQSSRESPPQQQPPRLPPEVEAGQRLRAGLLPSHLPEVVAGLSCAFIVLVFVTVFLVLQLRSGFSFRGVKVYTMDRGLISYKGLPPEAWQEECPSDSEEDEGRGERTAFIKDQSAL

SMILES: C[C@H](NC(=O)[C@H](CCC(N)=O)NC(=O)[C@@H](N)CCCNC(=N)N)C(=O)N[C@@H](CCCNC(=N)N)C(O)c1nc2ccccc2s1 (mixture of isomers) [Compound 2, 2-(2-amino-5-carbamimidamidopentanamido)-N-(1-{[1-(1,3-benzothiazol-2-yl)-5-carbamimidamido-1-hydroxypentan-2-yl]carbamoyl}ethyl)pentanediamide]
- Ki (matriptase [1]): 6.1 µM

SMILES: C[C@H](NC(=O)[C@H](CCC(N)=O)NC(=O)[C@@H](N)CCCNC(=N)N)C(=O)N[C@@H](CCCNC(=N)N)C(=O)c1nc2ccccc2s1 [Compound 1, RQAR-ketobenzothiazole]
- influenza replication supported by matriptase ([2]; 1 μM): completely abrogate
- influenza replication supported by matriptase ([2]; 10 μM): completely abrogate
- inhibition at 1 µM (matriptase [3]; 1 μM): ~50%
- inhibition at 10 µM (matriptase [3]; 10 μM): ~100%
- Ki (nM) (furin): no inhibition
- inhibition of matriptase activity [4]: almost completely
- effect on influenza replication with trypsin as the activating protease [5]: no effect
- block of influenza replication [6]: more than 50%

SMILES: CC(NC(=O)C(CCC(N)=O)NC(=O)C(N)CCCNC(=N)N)C(=O)NC(CCCNC(=N)N)C(O)c1nc2ccccc2s1 (centres unmarked) [Compound 2, 2-(2-amino-5-carbamimidamidopentanamido)-N-(1-{[1-(1,3-benzothiazol-2-yl)-5-carbamimidamido-1-hydroxypentan-2-yl]carbamoyl}ethyl)pentanediamide]
- matriptase protein expression (matriptase [7]): significantly blocked

SMILES: CC(NC(=O)C(CCC(N)=O)NC(=O)C(N)CCCNC(=N)N)C(=O)NC(CCCCN)C(=O)c1nc2ccccc2s1 (centres unmarked) [Compound 3, N-(1-{[6-amino-1-(1,3-benzothiazol-2-yl)-1-oxohexan-2-yl]carbamoyl}ethyl)-2-(2-amino-5-carbamimidamidopentanamido)pentanediamide]
- decrease of the Ki relative to compound 1 (matriptase [1]): about 3 orders of magnitude
- inhibition at 1 µM ([4]; read-out: inhibition of matriptase activity): ~25%

SMILES: CC(=O)NC(CCCNC(=N)N)C(=O)c1nc2ccccc2s1 (centres unmarked) [Compound 6, N-[1-(1,3-benzothiazol-2-yl)-5-carbamimidamido-1-oxopentan-2-yl]acetamide]
- Ki (matriptase [1]): 0.457 µM
- mode of inhibition (matriptase [1]; matriptase): mixed mode of inhibition
- reduced potency (lower inhibition) compared to compound 1 (matriptase [1]): over 30,000 fold

SMILES: C[C@H](NC(=O)[C@H](CCC(N)=O)NC(=O)[C@@H](N)CCCNC(=N)N)C(=O)N[C@@H](CC(=O)O)C(=O)N[C@H](CCCNC(=N)N)C(=O)c1nc2ccccc2s1 [Compound 7] (H-RQAD-X1)
- reduced potency (lower inhibition) compared to compound 1 (matriptase [1]): 400 fold

SMILES: N=C(N)NCCC[C@H](NC(=O)CNC(=O)[C@@H](N)CCC(=O)O)C(=O)CCl [EGR-CMK, Glu-Gly-Arg chloromethyl ketone] (H-Glu-Gly-Arg-CH2Cl)
- dissociation of enzyme:inhibitor complex (reversibility) (matriptase [8]): irreversible inhibition
